Measured values reported in ChEMBL document CHEMBL1201862, “PubChem BioAssay data set” (2004).
The source made the active and inactive calls.

Experiments:
Hexokinase HKDC1 = Hexokinase HKDC1 (Homo sapiens, UniProt Q2TB90); assay: HKDC1 hexokinase inhibitors, SAR follow-up, biochemical, set 2 (AID 588355); assay type: functional
Hexokinase-1 = Hexokinase-1 (Homo sapiens, UniProt P19367); assay: HK1 enzyme inhibition by HKDC1 hits, SAR follow-up, selectivity assay for HKDC1 inhibitor project, biochemical, set 2, resazurin fluorescence coupled readout (AID 588356); assay type: functional
Bcl-2-like protein 1 = Bcl-2-like protein 1 (Homo sapiens, UniProt Q07817); assay: BCL-XL inhibitors, dose response, selectivity assay for MCL1 inhibitor project, biochemical, fluorescence polarization, 1536-well (AID 2218)
[1] = NIH-3T3 fibroblast cytotoxicity, dose response, cytotoxicity control, cell-based, fluorescence, Alamar Blue, secondary assay (AID 2327); assay type: functional;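 also: NIH-3T3 mouse fibroblasts cultured with fluconazole at 8 µg/mL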
Exodeoxyribonuclease V = Exodeoxyribonuclease V (Escherichia coli (strain K12), UniProt P04993+P07648+P08394); assay: E. coli RecBCD inhibitors, dose response, counter-screen for AddAB inhibitor project, absorbance, V66 E. coli, mutant T4 phage (AID 492957); assay type: functional, cell-based, Escherichia coli str. K-12 substr. MG1655
NS3 = NS3 (Hepatitis C virus, UniProt A3EZJ3); assay: PubChem AID 2173; set-up: species or system Hepacivirus hominis
[2] = target: Transitional endoplasmic reticulum ATPase (Homo sapiens, UniProt P55072, C522A); assay: C522A mutant p97 ATPase inhibitors, dose response, counter-screen for p97 inhibitor project, biochemical, luminescence (AID 1544)
[3] = target: T1, Induced myeloid leukemia cell differentiation protein Mcl-1 (Homo sapiens, UniProt Q07820); assay: MCL1-BIM BH3 interaction inhibitors, dose response, biochemical, fluorescence polarization, BIM-BH3 peptide, 1536-well (AID 2217)
[4] = target: T2, Low molecular weight phosphotyrosine protein phosphatase (Homo sapiens, UniProt P24666); assay type: functional; details: read-out: IC50_Mean;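 also: Dose-response confirmation assay measuring inhibition of LMPTP enzyme activity by fluorescence intensity read-out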
T2 sequence (P24666 whole entry): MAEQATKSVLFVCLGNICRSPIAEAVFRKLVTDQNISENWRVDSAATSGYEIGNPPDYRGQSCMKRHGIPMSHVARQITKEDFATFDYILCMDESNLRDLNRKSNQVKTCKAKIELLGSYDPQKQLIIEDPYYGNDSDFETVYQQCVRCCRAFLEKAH

[5] = Late-stage probe development counterscreen for inhibitors of the Hepatitis C Virus non-structural protein 3 helicase (NS3): luminescence-based cell-based dose response assay to determine whether compounds that inhibit replication of HCV RNA replicon are cytotoxic. [Related pubchem assays (depositor defined):AID1800, AID1830, AID1845, AID1943, AID1945, AID2172, AID2173, AID2474, AID2476]; assay type: functional
Large T antigen = Large T antigen (Simian virus 40, UniProt P03070); assay type: functional, Betapolyomavirus macacae;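 also: Confirmatory-stage PubChem screen for compounds that inhibit SV40 T antigen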
[6] = target: T3, Runt-related transcription factor 1/Core-binding factor subunit beta (Homo sapiens, UniProt Q01196+Q13951); assay: inhibitors of RUNX1 Runt–CBFb-SMMHC binding, biochemical, TR-FRET (AID 1438); assay type: protein assay
[7] = Counterscreen for AddAB inhibitors: absorbance-based bacterial cell-based high throughput dose response assay for inhibitors of bacterial viability. [Related pubchem assays (depositor defined):AID435030, AID449728, AID449731, AID488942, AID488955, AID488956]; assay type: functional
[8] = target: T3, Runt-related transcription factor 1/Core-binding factor subunit beta; assay: inhibitors of RUNX1 Runt–CBFb-SMMHC binding, primary screen, biochemical, FRET, Cerulean-Runt, Venus-CBFb-SMMHC, uHTS (AID 1434); assay type: protein assay;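 also: partner is the CBFb-SMMHC leukemia fusion protein rather than wild-type CBFb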
[9] = C. albicans growth with fluconazole, confirmation, fluorescence, retest (AID 2467); assay type: functional, cell-based
[10] = target: T1, Induced myeloid leukemia cell differentiation protein Mcl-1; assay type: functional
[11] = target: Transitional endoplasmic reticulum ATPase (Homo sapiens, UniProt P55072); assay: p97 ATPase inhibitors, dose response, biochemical (AID 1534)
[12] = target: T4, Mannose-6-phosphate isomerase (Homo sapiens, UniProt P34949); assay: inhibitors of human PMI, primary screen, biochemical, fluorescence intensity, coupled assay (AID 1209)
T4 sequence (P34949 whole entry): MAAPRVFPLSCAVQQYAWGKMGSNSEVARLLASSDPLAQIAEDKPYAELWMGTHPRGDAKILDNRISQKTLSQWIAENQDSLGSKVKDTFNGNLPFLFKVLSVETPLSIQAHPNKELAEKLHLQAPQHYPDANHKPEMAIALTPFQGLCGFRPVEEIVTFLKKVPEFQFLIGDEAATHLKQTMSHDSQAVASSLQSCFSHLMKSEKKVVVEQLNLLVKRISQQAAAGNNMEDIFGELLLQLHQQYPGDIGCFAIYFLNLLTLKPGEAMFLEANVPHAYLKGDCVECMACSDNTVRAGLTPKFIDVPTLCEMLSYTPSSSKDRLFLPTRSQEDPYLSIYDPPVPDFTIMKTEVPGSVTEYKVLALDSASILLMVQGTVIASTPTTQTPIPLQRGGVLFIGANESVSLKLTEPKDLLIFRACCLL

Cysteine protease ATG4B = Cysteine protease ATG4B (Homo sapiens, UniProt Q9Y4P1); assay type: functional;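 also: Fluorescence-based dose-response confirmation assay measuring inhibition of ATG4B activity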
Phospholipase A2 = Phospholipase A2 (Homo sapiens, UniProt P04054); assay type: functional;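 also: confirmatory dose-response counterscreen on phospholipase A2, testing hits that came from an ultra-high-throughput screen for ATG4B inhibitors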
Phospholipase D2 = Phospholipase D2 (Homo sapiens, UniProt O14939); assay: PLD2 inhibitor potency in cells, dose response (AID 602147); assay type: functional;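 also: cellular assay in HEK293 cells overexpressing GFP-tagged PLD2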
Phospholipase D1 = Phospholipase D1 (Homo sapiens, UniProt Q13393); assay: PLD1 inhibitor potency in cells, dose response (AID 602151); assay type: functional;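 also: cellular PLD1 assay in Calu-1 cells stimulated with PMA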
[13] = target: T5, Short transient receptor potential channel 4 (Mus musculus, UniProt Q9QUQ5); assay: SAR Analysis for the identification of selective inhibits of the transient receptor potential cation channel C4 (TRPC4): Automated Electrophysiology_2. [Related pubchem assays (depositor defined):AID2256]; assay type: functional
T5 sequence (Q9QUQ5 whole entry): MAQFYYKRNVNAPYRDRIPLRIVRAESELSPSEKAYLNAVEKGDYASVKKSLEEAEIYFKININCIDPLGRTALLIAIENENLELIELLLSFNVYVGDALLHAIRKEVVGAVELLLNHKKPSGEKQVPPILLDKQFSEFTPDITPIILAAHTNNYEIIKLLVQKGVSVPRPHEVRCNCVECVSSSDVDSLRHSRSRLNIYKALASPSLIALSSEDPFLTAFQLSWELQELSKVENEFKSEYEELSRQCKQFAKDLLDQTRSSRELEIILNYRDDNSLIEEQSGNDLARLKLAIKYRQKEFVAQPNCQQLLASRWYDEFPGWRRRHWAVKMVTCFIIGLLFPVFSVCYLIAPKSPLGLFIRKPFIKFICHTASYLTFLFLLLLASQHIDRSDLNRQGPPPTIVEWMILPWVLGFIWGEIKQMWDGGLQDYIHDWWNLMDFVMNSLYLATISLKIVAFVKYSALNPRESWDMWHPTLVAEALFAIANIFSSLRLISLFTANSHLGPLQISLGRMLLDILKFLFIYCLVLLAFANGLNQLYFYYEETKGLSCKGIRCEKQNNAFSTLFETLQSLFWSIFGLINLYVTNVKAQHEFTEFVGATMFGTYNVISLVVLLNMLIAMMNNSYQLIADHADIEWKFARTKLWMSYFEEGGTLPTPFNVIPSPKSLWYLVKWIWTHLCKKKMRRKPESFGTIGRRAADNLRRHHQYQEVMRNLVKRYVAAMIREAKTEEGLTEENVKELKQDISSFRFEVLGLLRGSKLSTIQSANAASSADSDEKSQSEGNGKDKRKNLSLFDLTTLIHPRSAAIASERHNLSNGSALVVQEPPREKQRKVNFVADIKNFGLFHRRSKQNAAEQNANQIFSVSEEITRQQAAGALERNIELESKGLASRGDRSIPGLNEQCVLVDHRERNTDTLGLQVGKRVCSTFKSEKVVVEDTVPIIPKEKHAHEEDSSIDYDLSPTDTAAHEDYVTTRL

[14] = target: Short transient receptor potential channel 6 (Mus musculus, UniProt Q61143); assay: TRPC6 inhibition potency of TRPC4 inhibitor analogs, dose response, selectivity assay for selective TRPC4 inhibitor project, HEK293 cells, membrane potential dye, IC50 (AID 492987); assay type: functional, cell-based
HeLa = assay: HeLa cell cytotoxicity, dose response, cytotoxicity control for MITF activator project, CellTiter-Glo luminescence, cherry-pick samples (AID 540259); assay type: functional, cell-based; details: Homo sapiens
[15] = target: Voltage-gated inwardly rectifying potassium channel KCNH2 (Homo sapiens, UniProt Q12809); details: Potency;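 also: confirmatory quantitative high-throughput screen measuring inhibition of hERG channel activity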
[16] = target: T5, Short transient receptor potential channel 4; assay: mouse TRPC4 channel activators, dose response, cell-based, HEK293 TRPC4/mu-opioid, Fluo-4 calcium (AID 434937); assay type: functional
[17] = target: Delta-type opioid receptor (Homo sapiens, UniProt P41143); assay: Counterscreen for agonists of heterodimerization of the mu 1 (OPRM1) and delta 1 (OPRD1) opioid receptors: Luminescence-based cell-based high throughput dose response assay to identify agonists of OPRD1 homodimerization. [Related pubchem assays (depositor defined):AID504326, AID504355, AID504692, AID504904, AID504905]; assay type: functional
Mu-type opioid receptor = Mu-type opioid receptor (Homo sapiens, UniProt P35372); assay: Counterscreen for agonists of heterodimerization of the mu 1 (OPRM1) and delta 1 (OPRD1) opioid receptors: Luminescence-based cell-based high throughput dose response assay to identify agonists of OPRM1 homodimerization.; assay type: functional;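 also: U2OS cells expressing OPRM1 and beta-arrestin as split beta-galactosidase partners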
[18] = target: 5-hydroxytryptamine receptor 5A (Homo sapiens, UniProt P47898); assay: Counterscreen for agonists of OPRM1-OPRD1 heterodimerization: luminescence-based cell-based high throughput dose response assay to identify agonists of 5-hydroxytryptamine (serotonin) 5A receptor (HTR5A). [Related pubchem assays (depositor defined):AID504326, AID504355, AID504692, AID504904, AID504905]; assay type: functional
[19] = Luminescence Cell-Based Dose Response Follow up to Identify Inhibitors of Platelet Dense Granule Release. [Related pubchem assays (depositor defined):AID1663, AID1678, AID2398]; assay type: functional
[20] = inhibitors of HIV Env-driven cell fusion, dose response, cherry-pick (AID 652057); assay type: functional, cell-based
[21] = target: Luciferin 4-monooxygenase (Photuris pensylvanica, UniProt Q27757); assay: firefly luciferase enzyme inhibitors, dose response, counter-screen for HSF-1 reporter inhibitor project, biochemical, Cell Titer Glo, luminescence, cherry-picks (AID 588847)
[22] = inhibitors of clade B AD8 Env fusion, dose response, cell-based, cherry-pick (AID 652062); assay type: functional;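 also: luciferase signal from cell-cell fusion driven by HIV-1 clade B AD8 Env; potency is for inhibitors of fusion seen as a drop in luminescence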
HEK293 = assay: inhibitors of LMP1-driven NF-kB reporter, dose response, cell-based, HEK293, luciferase, cherry-pick (AID 588343); assay type: functional; details: Homo sapiens
[23] = inhibitors of SNCA 5'UTR-driven reporter translation, confirmation, H4 neuroglioma cells, luminescence (AID 1988); assay type: functional, cell-based
[24] = Luminescence Cell-Based Dose Response HTS to Identify Inhibitors of 5'UTR Stem-Loop Driven Prion Protein mRNA Translation in H4 Neuroglioblastoma Cells. [Related pubchem assays: 1827 (Project Summary), 1813 (Primary HTS)]; assay type: functional
[25] = inhibitors of firefly luciferase expression or activity, dose response, H4 neuroglioma cells, luminescence (AID 1990); assay type: functional, cell-based
[26] = off-target signal loss in HeLa-CEM21 co-culture – HeLa F-luc CTL cells, cherry-picked, counter-screen for HIV-1 Env fusion inhibitor project, dose response (AID 652040); assay type: functional, cell-based;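 also: potency for signal decrease marking cytotoxic or nonspecific inhibition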

T3 sequence (Q01196 whole entry): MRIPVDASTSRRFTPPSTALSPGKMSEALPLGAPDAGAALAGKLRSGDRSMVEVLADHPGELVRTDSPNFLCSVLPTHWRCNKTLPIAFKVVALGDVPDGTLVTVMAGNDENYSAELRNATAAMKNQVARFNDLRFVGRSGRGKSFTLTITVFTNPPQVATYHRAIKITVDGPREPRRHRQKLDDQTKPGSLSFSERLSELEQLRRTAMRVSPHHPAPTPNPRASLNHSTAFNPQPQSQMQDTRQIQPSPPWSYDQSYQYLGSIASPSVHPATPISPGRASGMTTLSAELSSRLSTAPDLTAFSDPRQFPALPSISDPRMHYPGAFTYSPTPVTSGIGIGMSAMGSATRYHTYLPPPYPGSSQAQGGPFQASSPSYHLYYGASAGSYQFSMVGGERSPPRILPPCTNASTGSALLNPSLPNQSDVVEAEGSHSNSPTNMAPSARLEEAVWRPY
T3 sequence (Q13951 whole entry): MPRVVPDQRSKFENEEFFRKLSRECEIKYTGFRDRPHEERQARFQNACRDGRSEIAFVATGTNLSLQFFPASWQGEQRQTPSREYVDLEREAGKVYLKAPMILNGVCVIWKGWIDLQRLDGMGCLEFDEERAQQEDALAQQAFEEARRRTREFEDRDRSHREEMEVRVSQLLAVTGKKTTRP
T1 sequence (Q07820 whole entry): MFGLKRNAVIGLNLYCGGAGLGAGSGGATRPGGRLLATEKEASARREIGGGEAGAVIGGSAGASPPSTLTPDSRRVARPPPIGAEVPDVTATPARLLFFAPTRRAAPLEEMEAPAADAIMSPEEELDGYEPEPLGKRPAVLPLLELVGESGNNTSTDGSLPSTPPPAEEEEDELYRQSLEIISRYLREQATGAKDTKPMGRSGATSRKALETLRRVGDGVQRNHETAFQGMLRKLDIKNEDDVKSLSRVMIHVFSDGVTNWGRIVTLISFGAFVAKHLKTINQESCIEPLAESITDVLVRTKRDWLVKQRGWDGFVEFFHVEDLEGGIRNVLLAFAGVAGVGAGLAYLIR
Sequence of 5-hydroxytryptamine receptor 5A (P47898 whole entry): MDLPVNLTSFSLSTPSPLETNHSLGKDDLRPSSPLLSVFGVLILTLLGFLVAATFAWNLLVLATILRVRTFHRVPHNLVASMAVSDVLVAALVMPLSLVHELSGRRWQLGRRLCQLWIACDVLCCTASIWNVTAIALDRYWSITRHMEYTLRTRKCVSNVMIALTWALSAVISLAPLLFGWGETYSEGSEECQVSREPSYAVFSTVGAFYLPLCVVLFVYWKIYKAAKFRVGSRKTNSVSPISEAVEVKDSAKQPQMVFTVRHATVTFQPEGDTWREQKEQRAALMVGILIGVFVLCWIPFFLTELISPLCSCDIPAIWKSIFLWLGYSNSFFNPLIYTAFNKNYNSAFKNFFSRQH
Sequence of Bcl-2-like protein 1 (Q07817 whole entry): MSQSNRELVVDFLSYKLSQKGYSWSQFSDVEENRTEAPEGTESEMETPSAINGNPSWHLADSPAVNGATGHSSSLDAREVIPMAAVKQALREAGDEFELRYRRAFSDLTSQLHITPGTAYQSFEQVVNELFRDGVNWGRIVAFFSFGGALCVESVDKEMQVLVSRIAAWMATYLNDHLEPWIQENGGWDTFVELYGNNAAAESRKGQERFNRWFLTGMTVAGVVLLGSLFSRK
Sequence of Phospholipase D2 (O14939 whole entry): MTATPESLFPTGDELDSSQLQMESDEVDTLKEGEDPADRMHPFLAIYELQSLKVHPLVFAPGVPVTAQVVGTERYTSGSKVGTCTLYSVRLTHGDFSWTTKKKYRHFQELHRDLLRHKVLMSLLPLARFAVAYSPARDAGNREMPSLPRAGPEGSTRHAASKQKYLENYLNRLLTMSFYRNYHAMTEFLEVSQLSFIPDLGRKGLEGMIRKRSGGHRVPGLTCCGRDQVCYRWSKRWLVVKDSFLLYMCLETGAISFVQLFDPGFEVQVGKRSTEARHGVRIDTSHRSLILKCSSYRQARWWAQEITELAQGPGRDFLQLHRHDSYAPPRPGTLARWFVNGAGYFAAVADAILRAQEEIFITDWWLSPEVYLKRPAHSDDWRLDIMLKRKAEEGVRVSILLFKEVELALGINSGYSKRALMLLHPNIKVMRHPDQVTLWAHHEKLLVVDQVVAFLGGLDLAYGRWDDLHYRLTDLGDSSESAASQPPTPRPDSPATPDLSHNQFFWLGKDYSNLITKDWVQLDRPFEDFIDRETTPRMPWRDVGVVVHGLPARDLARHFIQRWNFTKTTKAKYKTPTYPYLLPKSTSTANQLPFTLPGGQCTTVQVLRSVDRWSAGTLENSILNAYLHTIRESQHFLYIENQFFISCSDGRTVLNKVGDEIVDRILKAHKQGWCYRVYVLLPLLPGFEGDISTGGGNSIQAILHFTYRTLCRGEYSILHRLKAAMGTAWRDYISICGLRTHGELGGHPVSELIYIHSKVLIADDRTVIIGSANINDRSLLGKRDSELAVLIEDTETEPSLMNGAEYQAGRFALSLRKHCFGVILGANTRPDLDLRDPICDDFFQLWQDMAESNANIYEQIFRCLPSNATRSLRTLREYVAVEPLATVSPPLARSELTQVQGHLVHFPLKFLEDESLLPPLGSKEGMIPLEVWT
Sequence of Hexokinase-1 (P19367 whole entry): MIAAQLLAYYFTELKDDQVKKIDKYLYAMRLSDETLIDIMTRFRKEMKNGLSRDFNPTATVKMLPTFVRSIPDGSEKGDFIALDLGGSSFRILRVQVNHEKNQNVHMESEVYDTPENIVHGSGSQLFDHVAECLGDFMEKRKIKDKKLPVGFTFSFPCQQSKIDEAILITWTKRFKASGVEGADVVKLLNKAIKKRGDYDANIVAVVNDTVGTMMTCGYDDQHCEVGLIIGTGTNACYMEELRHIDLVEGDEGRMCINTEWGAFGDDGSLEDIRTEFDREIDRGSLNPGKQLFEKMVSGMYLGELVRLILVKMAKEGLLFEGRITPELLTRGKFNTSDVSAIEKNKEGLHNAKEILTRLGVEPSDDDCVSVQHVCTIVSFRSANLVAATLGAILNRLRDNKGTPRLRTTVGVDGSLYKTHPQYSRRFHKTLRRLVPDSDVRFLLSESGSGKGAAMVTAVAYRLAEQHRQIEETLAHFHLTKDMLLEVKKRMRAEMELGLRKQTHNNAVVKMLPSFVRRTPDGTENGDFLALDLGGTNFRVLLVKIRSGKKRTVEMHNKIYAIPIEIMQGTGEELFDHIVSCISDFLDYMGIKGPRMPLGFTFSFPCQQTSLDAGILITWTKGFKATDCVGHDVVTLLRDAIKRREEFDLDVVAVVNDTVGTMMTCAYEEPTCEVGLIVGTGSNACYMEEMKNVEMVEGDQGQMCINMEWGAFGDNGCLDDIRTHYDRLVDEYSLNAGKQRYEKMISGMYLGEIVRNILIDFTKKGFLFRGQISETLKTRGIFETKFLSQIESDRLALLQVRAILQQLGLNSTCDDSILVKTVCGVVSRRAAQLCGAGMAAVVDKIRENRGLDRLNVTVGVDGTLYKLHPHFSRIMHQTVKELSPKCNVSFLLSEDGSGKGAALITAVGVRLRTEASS
Sequence of Phospholipase D1 (Q13393 whole entry): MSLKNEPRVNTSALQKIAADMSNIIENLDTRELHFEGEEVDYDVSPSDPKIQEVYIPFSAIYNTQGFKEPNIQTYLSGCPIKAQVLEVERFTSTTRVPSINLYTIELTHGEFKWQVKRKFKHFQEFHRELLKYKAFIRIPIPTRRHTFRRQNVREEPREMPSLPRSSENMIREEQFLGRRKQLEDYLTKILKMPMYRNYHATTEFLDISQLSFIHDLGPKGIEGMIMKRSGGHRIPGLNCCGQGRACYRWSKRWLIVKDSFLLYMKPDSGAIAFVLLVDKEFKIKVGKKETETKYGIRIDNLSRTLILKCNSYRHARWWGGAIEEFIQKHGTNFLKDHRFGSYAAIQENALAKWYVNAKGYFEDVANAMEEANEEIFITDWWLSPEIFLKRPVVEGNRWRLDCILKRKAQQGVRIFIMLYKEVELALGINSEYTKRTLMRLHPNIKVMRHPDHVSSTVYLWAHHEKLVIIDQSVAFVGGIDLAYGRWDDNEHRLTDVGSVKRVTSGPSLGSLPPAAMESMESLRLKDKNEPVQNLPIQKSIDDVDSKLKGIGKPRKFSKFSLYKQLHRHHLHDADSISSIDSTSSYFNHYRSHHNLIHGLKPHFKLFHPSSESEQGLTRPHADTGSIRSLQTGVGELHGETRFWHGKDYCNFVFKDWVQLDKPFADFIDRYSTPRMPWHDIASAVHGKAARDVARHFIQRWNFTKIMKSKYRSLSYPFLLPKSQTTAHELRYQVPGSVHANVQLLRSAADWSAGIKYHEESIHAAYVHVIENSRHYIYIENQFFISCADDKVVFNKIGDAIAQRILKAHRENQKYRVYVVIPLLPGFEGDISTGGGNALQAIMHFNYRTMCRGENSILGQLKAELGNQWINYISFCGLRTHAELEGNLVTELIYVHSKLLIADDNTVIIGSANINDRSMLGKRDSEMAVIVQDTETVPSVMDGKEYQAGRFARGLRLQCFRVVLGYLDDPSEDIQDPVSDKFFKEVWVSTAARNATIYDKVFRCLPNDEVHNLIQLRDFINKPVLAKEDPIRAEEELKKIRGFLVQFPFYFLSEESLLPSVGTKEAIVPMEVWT
Sequence of Phospholipase A2 (P04054 whole entry): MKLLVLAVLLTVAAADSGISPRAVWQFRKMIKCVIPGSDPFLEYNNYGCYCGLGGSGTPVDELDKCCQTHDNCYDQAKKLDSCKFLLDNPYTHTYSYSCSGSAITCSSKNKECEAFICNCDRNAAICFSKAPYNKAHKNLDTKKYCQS

## CCCCN1C(=O)C(NC(C)=O)c2cc(OC)ccc21 (centres undefined)
Hexokinase HKDC1
  IC50: > 80 µM (inactive)
Hexokinase-1
  IC50: > 80 µM (inactive)

## COc1cccc(-n2c(SCc3cc(=O)oc4cc(O)c(O)cc34)nc3ccccc3c2=O)c1
Bcl-2-like protein 1
  IC50: > 109 µM (not active)
[1]
  EC50: > 150 µM (inactive)
Exodeoxyribonuclease V
  IC50: > 119 µM (inactive)
NS3
  IC50: 2.31 µM (active)
[2]
  IC50: > 50 µM (not active)
[3]
  IC50: > 109 µM (not active)
[4]
  IC50: 53.1 µM (inactive)
[5]
  CC50: > 100 µM (inactive)
Large T antigen
  IC50: > 100 µM (active)
[6]
  IC50: 19.3 µM (active)
[7]
  IC50: > 119 µM (inactive)
[8]
  IC50: 2 µM (active)
[9]
  EC50: > 38 µM (not active)
[10]
  IC50: 2.72 µM (active)
[11]
  IC50: 21.1 µM (not active)
[12]
  IC50: 15.6 µM (active)

## O=C(O)CCn1cc(/C=C\C(=O)c2ccc(Cl)cc2)c(-c2cccc(Br)c2)n1
Cysteine protease ATG4B
  IC50: 15.7 µM (active)
Phospholipase A2
  IC50: 14.9 µM (active)

## CC(C)[C@@H](CN1CCC2(CC1)C(=O)NCN2c1ccccc1)NC(=O)c1cc2cc(F)ccc2[nH]1
Phospholipase D2
  IC50: 0.48 µM (active)
Phospholipase D1
  IC50: 0.026 µM (active)

## CCc1ccc2nc(N3CCCCC3)cc(C)c2c1
[13]
  IC50: 3.73 µM (active)
[14]
  IC50: 15 µM (active)

## Cc1cccc(-c2cc(N)n(-c3ccccc3)n2)c1
HeLa
  AC50: > 350 µM (inactive)

## CCCCN1CCC(n2c(=O)[nH]c3ccccc32)CC1
[15]
  AC50: 11.2 µM (inconclusive)

## CCOC(=O)C1(CCOc2ccccc2)CCN(Cc2ccc3c(c2)OCCO3)CC1
[16]
  EC50: 1.33 µM (active)
[17]
  EC50: > 92.5 µM (inactive)
Mu-type opioid receptor
  EC50: > 92.5 µM (inactive)
[18]
  EC50: > 92.5 µM (inactive)

## Cn1c(N)c(C#N)c(-c2ccccc2)c(C#N)c1=O
[19]
  EC50: 1.74 µM (active)

## CCOc1ccc(OCc2cccc(C(=O)N/N=C/c3cccnc3)c2)cc1
[20]
  AC50: 2.3 µM (active)
[21]
  AC50: 31.9 µM (active)
[22]
  AC50: 3.31 µM (active)
HEK293
  AC50: 1.29 µM (active)
[23]
  EC50: 9.36 µM (active)
[24]
  EC50: 12.8 µM (active)
[25]
  EC50: 9.06 µM (active)
[26]
  AC50: 1.46 µM (active)
